ChEMBL document CHEMBL1201862, “PubChem BioAssay data set” (2004)
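Protocol summary: plate cells (96-well), add compound at 5 concentrations, incubate 48 h, interpolate endpoints linearly. GI50: concentration for 50% inhibition of growth.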 The source made the active and inactive calls. Rule as the data show it: active = GI50 up to about 1.1 µM and inactive = higher.

Tests used:
Test in all cases: growth of human tumour cells (NCI), 48 h
NCI/ADR-RES = test system: NCI/ADR-RES
NCI-H226 = test system: NCI-H226
HOP-62 = test system: HOP-62
SR = test system: SR
ACHN = test system: ACHN
786-0 = test system: 786-0
SNB-19 = test system: SNB-19
SW-620 = test system: SW-620
SK-MEL-2 = test system: SK-MEL-2
MOLT-4 = test system: MOLT-4
MDA-MB-435 = test system: MDA-MB-435
PC-3 = test system: PC-3
RXF 393 = test system: RXF 393
NCI-H522 = test system: NCI-H522
CCRF-CEM = test system: CCRF-CEM
HT-29 = test system: HT-29
MDA-N = test system: MDA-N
SF-268 = test system: SF-268
SK-OV-3 = test system: SK-OV-3
Malme-3M = test system: Malme-3M

| SMILES | GI50 (NCI/ADR-RES) | GI50 (NCI-H226) | GI50 (HOP-62) | GI50 (SR) | GI50 (ACHN) | GI50 (786-0) | GI50 (SNB-19) | GI50 (SW-620) | GI50 (SK-MEL-2) | GI50 (MOLT-4) | GI50 (MDA-MB-435) | GI50 (PC-3) | GI50 (RXF 393) | GI50 (NCI-H522) | GI50 (CCRF-CEM) | GI50 (HT-29) | GI50 (MDA-N) | GI50 (SF-268) | GI50 (SK-OV-3) | GI50 (Malme-3M) |
| --- | --- | --- | --- | --- | --- | --- | --- | --- | --- | --- | --- | --- | --- | --- | --- | --- | --- | --- | --- | --- |
| CC(=O)Nc1cc2cc(NS(=O)(=O)c3ccc(Cl)c(Cl)c3)ccc2oc1=O | 34.2 µM (inactive) | 31.8 µM (inactive) | 19.8 µM (inactive) | 33.9 µM (inactive) | 42 µM (inactive) | 17.4 µM (inactive) | 34.4 µM (inactive) | 50.7 µM (inactive) | 20.3 µM (inactive) | 27.4 µM (inactive) | 36.1 µM (inactive) | 22.4 µM (inactive) | 12.5 µM (inactive) | 23.4 µM (inactive) | 53.8 µM (inactive) | 35.3 µM (inactive) | 51.8 µM (inactive) | 26.2 µM (inactive) |  |  |
| COc1ccc(C2=CC(C(C)=C(C(N)=O)C(N)=O)C=C(c3ccc(Br)cc3)C2)c(OC)c1 (stereo not drawn) | > 100 µM (inactive) | > 100 µM (inactive) | > 100 µM (inactive) | > 100 µM (inactive) | > 100 µM (inactive) | > 100 µM (inactive) | > 100 µM (inactive) | > 100 µM (inactive) | > 100 µM (inactive) | > 100 µM (inactive) | > 100 µM (inactive) | 50.5 µM (inactive) | > 100 µM (inactive) | > 100 µM (inactive) | > 100 µM (inactive) | > 100 µM (inactive) | > 100 µM (inactive) | > 100 µM (inactive) | > 100 µM (inactive) |  |
| COc1cc(/C=C2/Oc3c(OC)cccc3C2=O)ccc1O | > 10 µM (inactive) | 76 µM (inactive) | 83.8 µM (inactive) | 29.9 µM (inactive) | 63.7 µM (inactive) | 76.4 µM (inactive) | 91 µM (inactive) | > 100 µM (inactive) | > 100 µM (inactive) | 50.4 µM (inactive) | 52.5 µM (inactive) | 43.9 µM (inactive) | 90.2 µM (inactive) | 24.7 µM (inactive) | 60.1 µM (inactive) | 52.4 µM (inactive) | > 100 µM (inactive) | > 100 µM (inactive) | 92 µM (inactive) |  |
| OC[C@@H](O)[C@H](O)[C@H](O)[C@@H](O)C1SCCCS1 | > 100 µM (inactive) | > 100 µM (inactive) | > 100 µM (inactive) | 63.8 µM (inactive) | > 100 µM (inactive) | > 100 µM (inactive) | > 100 µM (inactive) | > 100 µM (inactive) | > 100 µM (inactive) | > 100 µM (inactive) | > 100 µM (inactive) | > 100 µM (inactive) | > 100 µM (inactive) |  |  | > 100 µM (inactive) | > 100 µM (inactive) | > 100 µM (inactive) | > 100 µM (inactive) |  |
| CCN1CSC(=S)N(CC)C1 | > 100 µM (inactive) | > 100 µM (inactive) | 24 µM (inactive) |  | > 100 µM (inactive) | 28.6 µM (inactive) | > 100 µM (inactive) | 36.6 µM (inactive) | > 100 µM (inactive) | 34.4 µM (inactive) | 46.8 µM (inactive) | > 100 µM (inactive) | > 100 µM (inactive) | 22.6 µM (inactive) | 71.6 µM (inactive) | 41.1 µM (inactive) | 79.8 µM (inactive) | > 100 µM (inactive) | > 100 µM (inactive) | 52.7 µM (inactive) |
| O=C(c1ccccc1)N1CCC(CC2(c3cc4ccccc4[nH]3)OCCO2)CC1 | > 100 µM (inactive) | 32.7 µM (inactive) | 58.1 µM (inactive) | 33 µM (inactive) | 65.8 µM (inactive) | 17.8 µM (inactive) | 67.9 µM (inactive) | 19.5 µM (inactive) | 30.7 µM (inactive) | 19.5 µM (inactive) | 20.6 µM (inactive) | 40.5 µM (inactive) | 76 µM (inactive) |  | 29.6 µM (inactive) | 26.5 µM (inactive) | 26.2 µM (inactive) | 51.8 µM (inactive) | 56.8 µM (inactive) |  |
| O=C(OCc1ccc([N+](=O)[O-])cc1)N1c2ccccc2[C@@]23O[C@]24CCC[C@H]3C#C/C=C\C#C[C@H]14 | 43.6 µM (inactive) | > 100 µM (inactive) |  |  | 78.9 µM (inactive) | > 100 µM (inactive) | > 100 µM (inactive) | 72.9 µM (inactive) | > 100 µM (inactive) | 3.27 µM (inactive) | > 100 µM (inactive) | > 100 µM (inactive) | > 100 µM (inactive) | 25.8 µM (inactive) | 12.9 µM (inactive) | > 100 µM (inactive) | > 100 µM (inactive) | 38.6 µM (inactive) | > 100 µM (inactive) | 19.6 µM (inactive) |
| N=c1c2c(-c3ccccc3)c[nH]c2ncn1N | > 100 µM (inactive) | > 100 µM (inactive) | > 100 µM (inactive) |  | > 100 µM (inactive) | > 100 µM (inactive) | > 100 µM (inactive) | > 100 µM (inactive) | > 100 µM (inactive) | > 100 µM (inactive) | > 100 µM (inactive) | > 100 µM (inactive) |  | > 100 µM (inactive) | > 100 µM (inactive) | > 100 µM (inactive) | > 100 µM (inactive) |  | > 100 µM (inactive) |  |
| Oc1ccc(/C=C/c2ccc3cccc(O)c3n2)cc1O | 0.493 µM (active) |  | 13.1 µM (inactive) | 3.22 µM (inactive) | 3.42 µM (inactive) | 3.24 µM (inactive) | 5.02 µM (inactive) | 4.24 µM (inactive) | 11.9 µM (inactive) | 0.973 µM (active) | 5.9 µM (inactive) | 15.6 µM (inactive) | 3.24 µM (inactive) |  | 0.759 µM (active) | 14.7 µM (inactive) | 5.41 µM (inactive) | 6.5 µM (inactive) | 23.7 µM (inactive) |  |
| O=C1CCCC(=O)N1n1c(Cc2ccc(Cl)cc2)n[nH]c1=O | > 100 µM (inactive) | > 100 µM (inactive) | > 100 µM (inactive) |  | > 100 µM (inactive) | > 100 µM (inactive) | > 100 µM (inactive) | > 100 µM (inactive) | > 100 µM (inactive) | > 100 µM (inactive) | > 100 µM (inactive) | > 100 µM (inactive) | > 100 µM (inactive) | > 100 µM (inactive) | > 100 µM (inactive) | > 100 µM (inactive) | > 100 µM (inactive) | > 100 µM (inactive) | > 100 µM (inactive) | > 100 µM (inactive) |
| Cc1ccc(-c2cc(C(F)(F)F)nn2-c2ccc(S(N)(=O)=O)cc2)cc1 [CELECOXIB] | 16.2 µM (inactive) |  | 67.9 µM (inactive) | 16.1 µM (inactive) | 17.5 µM (inactive) | 37.1 µM (inactive) | 18 µM (inactive) | 16.9 µM (inactive) | 16.1 µM (inactive) | 17.3 µM (inactive) | 17.5 µM (inactive) | 13.4 µM (inactive) | 17.1 µM (inactive) |  | 14 µM (inactive) | 16.5 µM (inactive) | 17.1 µM (inactive) | 16.9 µM (inactive) | 18.3 µM (inactive) | 18.6 µM (inactive) |
| CCOC(=O)c1ccc(NCC#CCN2CCOCC2)cc1 | > 100 µM (inactive) | 70.3 µM (inactive) | > 100 µM (inactive) | > 100 µM (inactive) | 46 µM (inactive) | > 100 µM (inactive) | > 100 µM (inactive) | > 100 µM (inactive) | > 100 µM (inactive) | > 100 µM (inactive) | > 100 µM (inactive) | > 100 µM (inactive) | > 100 µM (inactive) |  | 60.1 µM (inactive) | 69.2 µM (inactive) | 29.4 µM (inactive) | > 100 µM (inactive) | > 100 µM (inactive) | > 100 µM (inactive) |
| SCc1ccc(CS)s1 | > 100 µM (inactive) |  | > 100 µM (inactive) | > 100 µM (inactive) |  | > 100 µM (inactive) | > 100 µM (inactive) | > 100 µM (inactive) |  | > 100 µM (inactive) | > 100 µM (inactive) | > 100 µM (inactive) |  | > 100 µM (inactive) | > 100 µM (inactive) | > 100 µM (inactive) | > 100 µM (inactive) | > 100 µM (inactive) | > 100 µM (inactive) |  |
| CSC12c3cc(C)n(-c4ccc([N+](=O)[O-])cc4)c3CC(C)(C)CN1C(=O)C2Oc1ccccc1 (stereo not drawn) | > 100 µM (inactive) | > 100 µM (inactive) | > 100 µM (inactive) | > 100 µM (inactive) | > 100 µM (inactive) | > 100 µM (inactive) | 80.9 µM (inactive) | > 100 µM (inactive) | > 100 µM (inactive) | > 100 µM (inactive) | 19.8 µM (inactive) | > 100 µM (inactive) | > 100 µM (inactive) |  | > 100 µM (inactive) |  | > 100 µM (inactive) |  |  |  |
| O=Cc1ccc(Oc2c3ccccc3nc3ccccc23)cc1 | 10.2 µM (inactive) | 4.03 µM (inactive) | 14.4 µM (inactive) | 0.053 µM (active) | 3.61 µM (inactive) | 2.32 µM (inactive) | 16.4 µM (inactive) |  |  | < 0.01 µM (active) | 2.45 µM (inactive) | 6.34 µM (inactive) | 7.98 µM (inactive) |  | 2.71 µM (inactive) | 2.07 µM (inactive) | 3.51 µM (inactive) | 4.5 µM (inactive) | 4.63 µM (inactive) | 11.8 µM (inactive) |
| COC(=O)/C=c1/c2ccccc2n2nc3ccccc3c12 | 30.8 µM (inactive) |  | > 100 µM (inactive) | 4.03 µM (inactive) | > 100 µM (inactive) | 27.6 µM (inactive) | 82.4 µM (inactive) | 65 µM (inactive) | 74.6 µM (inactive) | 6.01 µM (inactive) | 33 µM (inactive) | > 100 µM (inactive) | 34 µM (inactive) | 29 µM (inactive) | 11.4 µM (inactive) | 38.9 µM (inactive) | 30.8 µM (inactive) | 49.9 µM (inactive) | 16 µM (inactive) | 99.1 µM (inactive) |
